What was measured:
dog coronary arteries = settings: cited from earlier work
conscious rats = settings: cited from earlier work
anaesthetized rats = settings: 15 μg/kg bFGF; cited from earlier work
[1] = system: normotensive rats (Alderley Park strain, male animals); assay: Measurement of blood pressure in conscious rats by radio-telemetry; type: in vivo, rat; settings: single dose p.o. of a combination of 1.5 mg/kg of VTK-1 and 25 mg/kg of Src-1 vs control citrate buffer vehicle; FIGS. 1-3
Method: Blood pressure was measured using commercially-available radio-telemetry equipment (Data Sciences International, Saint Paul, Minn., USA) which provides a means for the remote measurement of the blood pressure (BP), heart rate and activity of a conscious, unrestrained laboratory animal such as a rat. Measurements obtained using this system have the advantage that the test animal is free from stresses induced by surgery and/or restraint.
The equipment comprises a pressure transducer (Code No. TA11PA-C40; hereinafter the ‘pressure transducer implant’) that is implanted into the abdomen of a laboratory rat. The transducer transmits a radio signal indicating the pressure in the aorta of the animal and the signal is detected by a receiver (RA1010) placed under the plastic cage which houses the animal. The signal is recorded and evaluated automatically by pre-written computer software (DataQuest 2.1 that may be installed on a suitable computer such as an IBM-compatible personal computer containing an Intel™ 486 processor). […]
The animals were housed in a facility using a 12 hour cycle of light and dark. […] Blood pressure data were recorded from each animal every 10 minutes throughout each Study.
Typically, on day 1, each of a group of 3 rats was dosed p.o. at approximately 9.00 am with control vehicle and blood pressure data were recorded during the ensuing 24 hour period. […]

**Q.** For VEGF, which “effect on dog coronary arteries in vitro” value (dog coronary arteries) is on record?
**A.** dilate dog coronary arteries

**Q.** And the “return to normal blood pressure” value (conscious rats; VEGF 250 μg/kg, conscious rats)?
**A.** ≤ 20 min

**Q.** And the “effect on blood pressure in the conscious rat” value (conscious rats; conscious rat)?
**A.** induce hypotension

**Q.** With bFGF: basic fibroblast growth factor as the compound, how does the “blood pressure returning to normal” value (anaesthetized rats) read?
**A.** ≤ 30 min

**Q.** For `CC(=O)N1CCN(CCOc2cc(OC(C)C)c3c(Nc4c(Cl)ccc5c4OCO5)ncnc3c2)CC1` [Src-1, 7-[2-(4-acetylpiperazin-1-yl)ethoxy]-4-(6-chloro-2,3-methylenedioxyanilino)-5-isopropoxyquinazoline], which “contrasting blood pressure effects (diastolic blood pressure profile)” value [1] is on record?
**A.** substantially counter-balanced

**Q.** Which “contrasting blood pressure effects (diastolic blood pressure profile)” value [1] does the source give for `COc1cc2c(Oc3ccc4[nH]c(C)cc4c3F)ncnc2cc1OCCCN1CCCCC1` [VTK-1, 4-(4-fluoro-2-methylindol-5-yloxy)-6-methoxy-7-(3-piperidinopropoxy)quinazoline] here?
**A.** substantially counter-balanced

Source: patent US20100029673A1, “THERAPEUTIC AGENTS COMPRISING AN ANTI-ANGIOGENIC AGENT IN COMBINATION WITH AN SRC-INHIBITOR AND THEIR THERAPEUTIC USE” (AstraZeneca AB, priority 2003, published 2010)
